For assay [1], the target named is T1, GST-tagged human Aurora B(AurB)/His-tagged human INCENP complex proteins (Homo sapiens, UniProt Q96GD4).
T1 construct: GST; purchased Carna Biosciences, Inc
Description: Aurora B inhibitory activity (Method A, IMAP assay kit). Format: biochemical. The following applies: 40 μM ATP, 25° C., 45 minutes.

Another assay has as its target T2, human Aurora A (Homo sapiens, UniProt O14965).
T2 construct: His (N); made in house; host or cells: Escherichia coli BL21-CodonPlus(DE3)-RIL
T2 sequence (O14965 1-403): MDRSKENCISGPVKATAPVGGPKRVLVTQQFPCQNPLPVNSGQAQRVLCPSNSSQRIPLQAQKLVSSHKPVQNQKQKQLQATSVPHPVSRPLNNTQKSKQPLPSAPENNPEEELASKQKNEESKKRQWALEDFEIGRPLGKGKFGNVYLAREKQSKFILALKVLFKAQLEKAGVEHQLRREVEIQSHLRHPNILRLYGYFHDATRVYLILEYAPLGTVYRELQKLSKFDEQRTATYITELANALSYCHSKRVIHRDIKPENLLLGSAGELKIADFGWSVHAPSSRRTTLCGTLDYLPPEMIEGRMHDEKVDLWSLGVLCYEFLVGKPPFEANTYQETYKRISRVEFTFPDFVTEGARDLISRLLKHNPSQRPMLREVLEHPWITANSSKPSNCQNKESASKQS
Nature of the assay: Aurora A inhibitory activity (IMAP fluorescence polarization phosphorylation assay). Format: biochemical. As to conditions: 20 μM ATP, 30° C., 120 minutes. In general terms: Polarisation of emitted light reports the rotation of a fluorescent probe.

The test system of assay [2] is Human cervical cancer cells (HeLa S3). Nature of the assay: Cell growth inhibitory effect, WST-8 method. It counts as cell-based. The following applies: HeLa S3, three days incubation, read-out: Cell growth inhibitory effect (HeLaS3) (IC50). As for the experimental part: Fetal calf serum (FCS) was purchased from Moregate Biotech, and DMEM medium was purchased from Invitrogen Corp. WST-8 was purchased from Kishida Chemical Co., Ltd.
(§1) Human cervical cancer cells (HeLa S3) were obtained from the American Type Culture Collection (ATCC).
Cells were suspended in a DMEM medium containing 10% FCS, and the cell suspension was dispensed to a 96-well plastic plate at a rate of 750 cells/100 microliters per well. The plate was incubated overnight in 5% CO2-95% air at 37° C. A drug was subjected to graded dilution in dimethylsulfoxide and further diluted with a DMEM medium containing 10% FCS. Then, the dilution was dispensed to the plate on which cells had been disseminated in advance, at a rate of 100 microliters per well. The plate was incubated for further three days in 5% CO2-95% air at 37° C. Cell growth after incubation was measured by the WST-8 method (H. Tominaga, et al., Anal. Commun., 36, 47-50 (1999)). Here, the WST-8 method refers to a method in which 20 microliters of a WST-8 reagent solution is added to each well, incubation is conducted at 37° C. for 60 minutes, the plate is stirred, and the amount of formazan produced is measured by a […] method to determine the inhibitory rate of the drug.
On the technique in general: Tetrazolium dyes change colour on reduction, which living cells bring about.

Assay [3] shares this test system. Description: Effect by combined use of drugs in cells (docetaxel), WST-8 method. It counts as cell-based. The following applies: HeLa S3, three days; for inhibition at 1 µM: compound 1.0 μM alone. As for the experimental part: Fetal calf serum (FCS) was purchased from Moregate Biotech, DMEM medium from Invitrogen Corp., docetaxel (tradename: Taxere) from Sigma-Aldrich, Inc., and WST-8 from Kishida Chemical Co., Ltd.
as §1
Cells were suspended in a DMEM medium containing 10% FCS, and the cell suspension was dispensed to two 96-well plastic plates at a rate of 750 cells/100 microliters per well. The plates were incubated overnight in 5% CO2-95% air at 37° C. A drug was subjected to graded dilution in dimethylsulfoxide and further diluted with DMSO or with a DMEM medium containing 10% FCS and also containing 0.6 nM docetaxel. Then, the dilutions were each dispensed to one of the plates on which cells had been disseminated in advance, at a rate of 100 microliters per well. The final concentration of docetaxel at this stage was 0.3 nM. Also, the concentrations in the case of sole administration of the compound according to the invention were 0.003, 0.01, 0.03, 0.1, 0.3, 1, 3 and 10 μM. The plates were incubated for further three days in 5% CO2-95% air at 37° C. Cell growth after incubation was measured by the WST-8 method (H. Tominaga, et al., Anal. Commun., 36, 47-50 (1999)). Here, the WST-8 method refers to a method in which 20 microliters of a WST-8 reagent solution is added to each well, incubation is conducted at 37° C. for 60 minutes, the plate is stirred, and the amount of formazan produced is measured by a colorimetric method to determine the inhibitory rate of the drug. The growth inhibitory effects of docetaxel and of the compound according to the invention were determined, with the value obtained in sole treatment of DMSO being defined as 0%.

[4] abbreviates: compound 0.1 μM + docetaxel 0.3 nM.
Setting [5] is: compound 0.3 μM + docetaxel 0.3 nM.
The mark [6] stands for this setting: Homo sapiens, HeLa S3, 72 h, compound 0.1 μM alone, read-out: Cell growth inhibitory effect by sole administration of the compound of Example (%).
[7] abbreviates: Homo sapiens, HeLa S3, 72 h, compound 0.3 μM alone, read-out: Cell growth inhibitory effect by sole administration of the compound of Example (%).
The mark [8] stands for this setting: Homo sapiens, HeLa S3, 72 h, read-out: Cell growth inhibitory effect by sole administration of the compound of Example (%).
Where [9] appears, read: compound 1.0 μM + docetaxel 0.3 nM.

Where a name gives a salt, the structure may show the parent alone. Read-outs that look alike come from different tables or passages of the source.

T1 sequence (Q96GD4 whole entry): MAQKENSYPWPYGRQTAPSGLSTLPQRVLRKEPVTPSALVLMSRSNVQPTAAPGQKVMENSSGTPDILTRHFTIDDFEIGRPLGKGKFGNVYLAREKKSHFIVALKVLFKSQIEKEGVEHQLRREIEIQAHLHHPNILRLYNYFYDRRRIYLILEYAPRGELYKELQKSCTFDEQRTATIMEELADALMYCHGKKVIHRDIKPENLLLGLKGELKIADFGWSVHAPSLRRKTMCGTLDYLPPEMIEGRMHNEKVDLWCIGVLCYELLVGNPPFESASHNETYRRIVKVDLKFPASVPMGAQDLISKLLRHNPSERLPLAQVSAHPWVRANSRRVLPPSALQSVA
T1 sequence (Q9NQS7 803-916 partner limits assumed): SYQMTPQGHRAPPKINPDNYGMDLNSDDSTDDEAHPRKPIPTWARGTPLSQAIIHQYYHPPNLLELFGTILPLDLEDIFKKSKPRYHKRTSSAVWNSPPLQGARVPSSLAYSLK

Take “5-(trans-4-(3-chloro-2-fluorophenoxy)-1-((6-(1H-pyrazol-3-ylamino)pyrazin-2-yl)methyl)cyclohexyl)-1,3,4-oxadiazol-2(3H)-one [Example 29]”: the 50% inhibitory concentration (IC50) – broadly, the midpoint of a concentration-inhibition curve – in assay [1] is 670 nM; against human Aurora A, 0.19 nM; in assay [2], 670 nM. Moreover, the results for the “Cell growth inhibitory effect by combined administration of docetaxel and the compound of Example (%)” value in assay [3] (setting [4]) and in assay [3] (setting [5]) were 79.0% and 92.9%, respectively. For the same molecule, the “Cell growth inhibitory effect by sole administration of the compound of Example (%)” value in assay [3] (compound 0.1 μM alone) turned out to be 11.3%; in assay [3] (compound 0.3 μM alone), 39.9%.

On to `O=c1[nH]nc([C@]2(Cc3cccc(Nc4cc[nH]n4)n3)CC[C@@H](Oc3cccc(Cl)c3F)CC2)o1` [Example 23, 5-(trans-4-(3-chloro-2-fluorophenoxy)-1-((6-(1H-pyrazol-3-ylamino)pyridin-2-yl)methyl)cyclohexyl)-1,3,4-oxadiazol-2(3H)-one], for which the IC50 turned out to be 490 nM in assay [1]; 0.39 nM against human Aurora A; 760 nM in assay [2] (Homo sapiens, 72 h). In addition, the inhibition at 0.1 µM in assay [3] (setting [6]) turned out to be 3.7%. Further, in assay [3] (setting [7]), the inhibition at 0.3 µM is 36%. The “Cell growth inhibitory effect by combined administration of docetaxel and the compound of Example (%)” value is 71.5% in assay [3] (setting [4]) and 87.4% in assay [3] (setting [5]).

Turning to `Cl.O=C(O)[C@]1(Cc2cccc(Nc3nccs3)n2)CC[C@@H](Oc2cccc(F)c2F)CC1` [Example 3, trans-4-(2,3-difluorophenoxy)-1-((6-(1,3-thiazol-2-ylamino)pyridin-2-yl)methyl)cyclohexanecarboxylic acid hydrochloride], the IC50 in assay [1] was 59 nM; at human Aurora A, 0.12 nM; in assay [2] (Homo sapiens, 72 h), 3950 nM. Moreover, the inhibition at 0.3 µM in assay [3] (setting [7]) turned out to be 5.4%. In addition, in assay [3] (setting [8]), the inhibition at 1 µM was found to be 26.9%. Further, the “Cell growth inhibitory effect by combined administration of docetaxel and the compound of Example (%)” value in assay [3] (setting [5]) worked out at 74.1%; in assay [3] (setting [9]), 90.4%.

On to `Cn1nc([C@]2(Cc3cccc(Nc4cc[nH]n4)n3)CC[C@@H](Oc3cccc(Cl)c3F)CC2)oc1=O` [Example 26, 5-(trans-4-(3-chloro-2-fluorophenoxy)-1-((6-(1H-pyrazol-3-ylamino)pyridin-2-yl)methyl)cyclohexyl)-3-methyl-1,3,4-oxadiazol-2(3H)-one], for which the IC50 in assay [1] was 800 nM; against human Aurora A it was 1.4 nM; in assay [2] (Homo sapiens, 72 h) it was 3300 nM. Also, the inhibition at 0.3 µM in assay [3] (setting [7]) amounted to 11.8%. In addition, in assay [3] (setting [8]), the inhibition at 1 µM came to 18.2%. In addition, the “Cell growth inhibitory effect by combined administration of docetaxel and the compound of Example (%)” value in assay [3] (setting [5]) amounted to 67.3%; in assay [3] (setting [9]) it was 88.5%.

In the case of `O=C(O)[C@]1(Cc2cccc(Nc3cc[nH]n3)n2)CC[C@@H](Oc2cccc(C(F)(F)F)c2F)CC1` [Example 9, trans-4-(2-fluoro-3-(trifluoromethyl)phenoxy)-1-((6-(1H-pyrazol-3-ylamino)pyridin-2-yl)methyl)cyclohexanecarboxylic acid trifluoroacetate], the IC50 in assay [1] is 190 nM; on human Aurora A, 0.16 nM; in assay [2] (Homo sapiens, 72 h) it was 2210 nM. Besides, the inhibition at 1 µM in assay [3] (setting [8]) came to 37.1%. For the same molecule, the inhibition at 3 µM in assay [3] (Homo sapiens, HeLa S3, 72 h, compound 3.0 μM alone, read-out: Cell growth inhibitory effect by sole administration of the compound of Example (%)) came to 59%. Also, the “Cell growth inhibitory effect by combined administration of docetaxel and the compound of Example (%)” value was 91.8% in assay [3] (setting [9]) and 95.0% in assay [3] (compound 3.0 μM + docetaxel 0.3 nM).

In the case of `Fc1c(Cl)cccc1O[C@H]1CC[C@](Cc2cccc(Nc3cc[nH]n3)n2)(c2n[nH]c(=S)o2)CC1` [Example 24, 5-(trans-4-(3-chloro-2-fluorophenoxy)-1-((6-(1H-pyrazol-3-ylamino)pyridin-2-yl)methyl)cyclohexyl)-1,3,4-oxadiazole-2(3H)-thione], the IC50 in assay [1] stood at 130 nM; against human Aurora A, 0.12 nM; in assay [2] (Homo sapiens, 72 h) it was 1150 nM. Besides, in assay [3] (setting [6]), the inhibition at 0.1 µM was 0.5%. Moreover, in assay [3] (setting [7]), the inhibition at 0.3 µM was determined as 25.4%. Moreover, the “Cell growth inhibitory effect by combined administration of docetaxel and the compound of Example (%)” value was determined as 72.8% in assay [3] (setting [4]) and 87.8% in assay [3] (setting [5]).

Take `O=c1[nH]nc([C@]2(Cc3cccc(Nc4cc[nH]n4)n3)CC[C@@H](S(=O)(=O)c3cccc(Cl)c3Cl)CC2)o1` [Example 36, 5-(trans-4-((2,3-dichlorophenyl)sulfonyl)-1-((6-(1H-pyrazol-3-ylamino)pyridin-2-yl)methyl)cyclohexyl)-1,3,4-oxadiazol-2(3H)-one trifluoroacetate]: the IC50 was 370 nM in assay [1]; 0.43 nM on human Aurora A; 1130 nM in assay [2] (Homo sapiens, 72 h). In addition, the inhibition at 0.1 µM in assay [3] (setting [6]) came to 2.6%. Besides, the inhibition at 0.3 µM in assay [3] (setting [7]) turned out to be 32%. In addition, the “Cell growth inhibitory effect by combined administration of docetaxel and the compound of Example (%)” value is given as 76.8% in assay [3] (setting [4]) and 88.9% in assay [3] (setting [5]).

For the molecule `CONC(=O)[C@]1(Cc2cccc(Nc3nccs3)n2)CC[C@@H](Oc2cccc(Cl)c2F)CC1` [Example 18, trans-4-(3-chloro-2-fluorophenoxy)-N-methoxy-1-((6-(1,3-thiazol-2-ylamino)pyridin-2-yl)methyl)cyclohexanecarboxamide], the IC50 in assay [1] is 200 nM; against human Aurora A it was 0.49 nM; in assay [2] (Homo sapiens, 72 h) it was 900 nM. For the same molecule, the inhibition at 0.1 µM in assay [3] (setting [6]) amounted to 7.4%. Also, the inhibition at 0.3 µM in assay [3] (setting [7]) is 21.3%. The “Cell growth inhibitory effect by combined administration of docetaxel and the compound of Example (%)” value amounted to 61.5% in assay [3] (setting [4]) and 77.4% in assay [3] (setting [5]).

Regarding `O=C(O)[C@]1(Cc2cccc(Nc3nccs3)n2)CC[C@@H](Sc2cccc(Cl)c2Cl)CC1` [Example 30, trans-4-((2,3-dichlorophenyl)thio)-1-((6-(1,3-thiazol-2-ylamino)pyridin-2-yl)methyl)cyclohexanecarboxylic acid trifluoroacetate], the IC50 in assay [1] came out at 39 nM; on human Aurora A, 0.08 nM; in assay [2] (Homo sapiens, 72 h), 340 nM. Further, the inhibition at 0.1 µM in assay [3] (setting [6]) was determined as 28.3%. Further, the inhibition at 0.3 µM in assay [3] (setting [7]) came out at 53.4%. For the same molecule, the “Cell growth inhibitory effect by combined administration of docetaxel and the compound of Example (%)” value is 81.2% in assay [3] (setting [4]) and 92.0% in assay [3] (setting [5]).

For the origin of these results see patent US20100016335A1, “NOVEL AMINOPYRIDINE DERIVATIVES HAVING AURORA A SELECTIVE INHIBITORY ACTION” (priority 2006, published 2010).
